Broadly, the pIC50 is −log10 of the IC50, conventionally taken in molar units.

From patent US11760775B2, “Steroids and protein-conjugates thereof” (Regeneron Pharmaceuticals, Inc., priority 2016, dated 2023) come the findings set out here.

SMILES strings stand for the structures. pEC50, pIC50: −log10 of the molar value. Where a name gives a salt, the structure may show the parent alone. Read-outs that look alike come from different tables or passages of the source.

Assay [1] deals with GR activation in 293/PRLR/GRE-Luc cells (HEK293/9xUAS-Luc2P/pBind-GR/PRLR-HA high cells). Kind of assay: GR co-activator luciferase reporter cell based assay in 293/PRLR/GRE-Luc cells. More on the design: species or system human. Particulars: for pEC50: read-out: HEK293/9xUAS-Luc2P/pBind-GR/PRLR-HA high cells EC50; for Emax: HEK293, read-out: Activation (fold activation relative to Budesonide) in HEK293/9xUAS-Luc2P/pBind-GR/PRLR-HA high cells; for HEK293/9xUAS-Luc2P/pBind-GR/PRLR-HA high cells activation relative to Budesonide: fold activation vs Budesonide.
From the text: Bioassays described herein were used to assess the efficacy of free steroids and anti-PRLR-ncADCs. In one example, the bioassay assessed the activity of steroids, after internalization of a site-specific anti-PRLR-GC steroid ADC into cells, to bind to pBIND-GR and subsequent luciferase reporter activation. […] Then such stable cell line was further transfected with a chimeric receptor consisting of a GR ligand binding domain fused to the yeast Gal4 DNA binding domain (pBind-GR, Promega Cat #E1581), and a Gal4 upstream activator sequence (9×Gal4UAS-Luc2P) that drives luciferase gene expression.
(§1) For this assay, 20,000 cells were seeded in 96-well plates in media containing DMEM supplemented with 10% FBS and pencillin/streptomycin (complete media) and grown overnight at 37° C. in 5% CO2. […] Luciferase activity was determined by addition of OneGlo™ reagent (Promega, Cat #E6130) and relative light units (RLUs) were measured on a Victor luminometer (Perkin Elmer). The EC50 values were determined from a four-parameter logistic equation over a 10 point response curve using GraphPad Prism.
as §1, with “One-Glo™” for “OneGlo™”, “10-point” for “10 point”, “Prism. […] Minimal activation in this assay is defined as less than 10% of the maximal activation measured with the free payload.” for “Prism.”
Background: In a reporter assay the amount or activity of a reporter protein is the signal.

Assay [2] has as its target Glucocorticoid Receptor (GR) (Homo sapiens (Human), UniProt P04150). Kind of assay: LanthaScreen TR-FRET GR Competitive Binding Assay (cell free). (In TR-FRET formats the signal depends on donor and acceptor labels being close together.)
The mark [3] stands for this setting: Homo sapiens, HEK293, 72 hours of incubation.
The mark [4] stands for this setting: Homo sapiens, 72 hours of incubation.

Glucocorticoid Receptor (GR), sequence (P04150 524-758): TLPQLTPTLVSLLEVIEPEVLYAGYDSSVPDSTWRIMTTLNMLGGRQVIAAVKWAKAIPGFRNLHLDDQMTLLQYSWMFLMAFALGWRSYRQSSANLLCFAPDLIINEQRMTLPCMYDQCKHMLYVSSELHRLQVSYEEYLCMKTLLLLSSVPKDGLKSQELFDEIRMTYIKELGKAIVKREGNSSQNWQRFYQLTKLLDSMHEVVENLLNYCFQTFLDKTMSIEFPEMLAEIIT

Take `CCCC1O[C@@H]2C[C@H]3[C@@H]4C[C@H](F)C5=CC(=O)C=C[C@]5(C)[C@@]4(F)[C@@H](O)C[C@]3(C)[C@]2(C(=O)CN(C)Cc2ccc(OC)cc2)O1` (stereo partly drawn) [11-20 R/S, (1S,2S,4R,8S,9S,11S,12R,13S,19S)-12,19-Difluoro-11-hydroxy-8-(2-{[(4-methoxyphenyl)methyl](methyl)amino}acetyl)-9,13-dimethyl-6-propyl-5,7-dioxapentacyclo[10.8.0.0^2,90.0^4,80.0^13,18]icosa-14,17-dien-16-one; trifluoroacetic acid]: the “Activation (fold activation relative to Budesonide) in HEK293/9xUAS-Luc2P/pBind-GR/PRLR-HA high cells” value in assay [1] (72 hours of incubation) is “no activation”. Besides, the pEC50 in assay [1] (setting [3]) is under 7.00. Moreover, in assay [2], the pIC50 was over 8.00.

With `CCCC1O[C@@H]2C[C@H]3[C@@H]4C[C@H](F)C5=CC(=O)C=C[C@]5(C)[C@@]4(F)[C@@H](O)C[C@]3(C)[C@]2(C(=O)CNC)O1` (stereo partly drawn) [11-21 R/S, (1S,2S,4R,8S,9S,11S,12R,13S,19S)-12,19-Difluoro-11-hydroxy-9,13-dimethyl-8-[2-(methylamino)acetyl]-6-propyl-5,7-dioxapentacyclo[10.8.0.0^2,90.0^4,80.0^13,18]icosa-14,17-dien-16-one; trifluoroacetic acid], in assay [1] (setting [4]), the Emax lay within 20 to 75%. In assay [1] (setting [3]), the pEC50 is 7.00 to 8.00. Besides, the pIC50 in assay [2] was over 8.00.

Regarding `C[C@@H]1C[C@H]2[C@@H]3C[C@H](F)C4=CC(=O)C=C[C@]4(C)[C@@]3(F)[C@@H](O)C[C@]2(C)[C@@]1(O)C(=O)CN` [Compound 4d, (1R,2S,8S,10S,11S,13R,14R,15S,17S)-14-(2-Aminoacetyl)-1,8-difluoro-14,17-dihydroxy-2,13,15-trimethyltetracyclo 18.7.0.0^2,70.0^11,15]heptadeca-3,6-dien-5-one trifluoroacetate], the pEC50 in assay [1] (Homo sapiens, HEK293) is 7.30 to 8.00. Besides, the “HEK293/9xUAS-Luc2P/pBind-GR/PRLR-HA high cells activation relative to Budesonide” value in assay [1] is given as “Partial”. In addition, the pIC50 in assay [2] was 7.30 to 8.00.

Take `CCCC1O[C@@H]2C[C@H]3[C@@H]4CCC5=CC(=O)C=C[C@]5(C)[C@@]4(F)[C@@H](O)C[C@]3(C)[C@]2(C(=O)CN)O1` (stereo partly drawn) [Compound 4h, (1S,2S,4R,8S,9S,11S,12R,13S)-8-(2-Aminoacetyl)-12-fluoro-11-hydroxy-9,13-dimethyl-6-propyl-5,7-dioxapentacyclo[10.8.0.0^2,9.0^4,8.0^13,18]icosa-14,17-dien-16-one]: the pEC50 in assay [1] (Homo sapiens, HEK293) is over 8.00. Moreover, in assay [1], the “HEK293/9xUAS-Luc2P/pBind-GR/PRLR-HA high cells activation relative to Budesonide” value was “Full”. In assay [2], this compound gave a pIC50 of 7.30 to 8.00.

With `[2H]c1c([2H])c(OCC(=O)[C@@]23OC(CCC)O[C@@H]2C[C@H]2[C@@H]4C[C@H](F)C5=CC(=O)C=C[C@]5(C)[C@@]4(F)[C@@H](O)C[C@@]23C)c([2H])c([2H])c1N` (stereo partly drawn) [Compound 6-ID, (1S,2S,4R,8S,9S,11S,12R,13S,19S)-8-{2-[4-Amino(2,3,5,6-^2H4)phenoxy]acetyl}-12,19-difluoro-11-hydroxy-9,13-dimethyl-6-propyl-5,7-dioxapentacyclo[10.8.0.0^2,9.0^4,8.0^13,18]icosa-14,17-dien-16-one], in assay [1] (Homo sapiens, HEK293), the pEC50 is over 8.00. Also, in assay [1], the “HEK293/9xUAS-Luc2P/pBind-GR/PRLR-HA high cells activation relative to Budesonide” value is listed as “Full”. In assay [2], this compound showed a pIC50 of over 8.00.

As for `CCCC1O[C@@H]2C[C@H]3[C@@H]4C[C@H](F)C5=CC(=O)C=C[C@]5(C)[C@@]4(F)[C@@H](O)C[C@]3(C)[C@]2(C(=O)COc2ccc(N)c(OC)c2)O1` (stereo partly drawn) [Compound 6-II, (1S,2S,4R,8S,9S,11S,12R,13S,19S)-8-[2-(4-Amino-3-methoxyphenoxy)acetyl]-12,19-difluoro-11-hydroxy-9,13-dimethyl-6-propyl-5,7-dioxapentacyclo[10.8.0.0^2,90.0^4,80.0^13,18]icosa-14,17-dien-16-one trifluoroacetate], the pEC50 in assay [1] (Homo sapiens, HEK293) is over 8.00. Besides, the “HEK293/9xUAS-Luc2P/pBind-GR/PRLR-HA high cells activation relative to Budesonide” value in assay [1] is on record as “Full”. In assay [2], the pIC50 was over 8.00.

For the compound `CCC(=O)O[C@]1(C(=O)CNC)[C@@H](C)C[C@H]2[C@@H]3C[C@H](F)C4=CC(=O)C=C[C@]4(C)[C@@]3(F)[C@@H](O)C[C@@]21C` [Compound 14-2, (1R,2S,8S,10S,11S,13S,14R,15S,17S)-1,8-difluoro-17-hydroxy-2,13,15-trimethyl-14-[2-(methylamino)acetyl]-5-oxotetracyclo[8.7.0.0^2,70.0^11,15]heptadeca-3,6-dien-14-yl propanoate], the Emax in assay [1] (setting [4]) was under 20%. Further, in assay [1] (setting [3]), the pEC50 is under 7.00. For the same compound, the pIC50 in assay [2] was over 8.00.

In the case of `C[C@@H]1C[C@H]2[C@@H]3C[C@H](F)C4=CC(=O)C=C[C@]4(C)[C@@]3(F)[C@@H](O)C[C@]2(C)[C@@]1(O)C(=O)COc1ccc(N)cc1` [Compound 15-5, (1R,2S,8S,10S,11S,13R,14R,155,17S)-14-[2-(4-Aminophenoxy)acetyl]-1,8-difluoro-14,17-dihydroxy-2,13,15-trimethyltetracyclo[8.7.0.0^2,70.0^11,15]heptadeca-3,6-dien-5 one], in assay [1] (72 hours of incubation), the “Activation (fold activation relative to Budesonide) in HEK293/9xUAS-Luc2P/pBind-GR/PRLR-HA high cells” value was “Full activation (Full activation: >75% of fold activation induced by Budesonide)” and the pEC50 was 7.00 to 8.00. In assay [2], this compound had a pIC50 of 7.00 to 8.00.

Turning to `CCC[C@@H]1O[C@@H]2C[C@H]3[C@@H]4C[C@H](F)C5=CC(=O)C=C[C@]5(C)[C@@]4(F)[C@@H](O)C[C@]3(C)[C@]2(C(=O)COc2ccc(N)cc2)O1` [Compound R-6-I], the pEC50 in assay [1] (Homo sapiens, HEK293) is over 8.00. The “HEK293/9xUAS-Luc2P/pBind-GR/PRLR-HA high cells activation relative to Budesonide” value in assay [1] is “Full”. The same compound had a pIC50 in assay [2] of over 8.00.

With `CCC[C@H]1O[C@@H]2C[C@H]3[C@@H]4C[C@H](F)C5=CC(=O)C=C[C@]5(C)[C@@]4(F)[C@@H](O)C[C@]3(C)[C@]2(C(=O)COc2ccc(N)cc2)O1` [Compound S-6-I, (1S,2S,4R,6S,8S,9S,11S,12R,13S,19S)-8-[2-(4-Aminophenoxy)acetyl]-12,19-difluoro-11-hydroxy-9,13-dimethyl-6-propyl-5,7-dioxapentacyclo[10.8.0.0^2,90.0^4,80.0^13,18]icosa-14,17-dien-16-one], the pEC50 in assay [1] (Homo sapiens, HEK293) was over 8.00. Also, the “HEK293/9xUAS-Luc2P/pBind-GR/PRLR-HA high cells activation relative to Budesonide” value in assay [1] is “Full”. In addition, in assay [2], the pIC50 is over 8.00.
